Here are results for 1 substance from patent US20210267886A1, “Gel-In-Oil Emulsion and Transdermally Absorbed Agent” (Nippon Shokubai Co., Ltd., priority 2018, published 2021).

The experiment relates to L929 cell-embedded collagen gel (cultured dermis model). As to the kind of experiment: Titer evaluation using cultured dermis model (quantification of DNA). In kind it is cell-based. Here is the method:
Ultrapure water was added to a collagen made of pig skin (manufactured by NH Foods Ltd.), and the obtained mixture was stirred overnight at 4° C. to prepare a 1% collagen solution. A L929 cell suspension (obtained by collecting cultured L929 cells and suspending the collected L929 cells in a culture medium) (6×10^5 cells) was centrifuged at 1000 rpm for 3 minutes, and the supernatant was removed by suction. A 20% fetal bovine serum (Fetal Bovine Serum, manufactured by FBS bio sera) was added to a Dulbecco's Modified Eagle Medium (DMEM) (manufactured by Thermo Fisher Scientific Inc.) prepared at a concentration of twice to prepare a 2-fold concentrated DMEM culture medium. L929 cells were suspended in a solution in which the 1% collagen solution and the 2-fold concentrated DMEM culture medium were mixed at a ratio of 1:1. This suspension was added to a 12-well plate at 1 ml/well, and was left to stand in an incubator for 1 hour to allow the suspension to turn into a gel.
A ring made of polycarbonate (outer diameter: 1.4 cm, inner diameter: 1.2 cm, and height: 0.3 cm) was placed on a L929 cell-embedded collagen gel (cultured dermis model) prepared in Synthesis Example 1. 200 μl of the bFGF-containing G/O emulsion described above was added to the inside the ring. 200 μl of DMEM culture medium was added to the outside of the ring, and the gel was placed in an incubator. The culture medium was changed every day, and the amounts of DNA in the L929 cell-embedded collagen gel after 1 day, 3 days, and 5 days were quantified. The quantification of DNA was performed as follows.
A liquid in which 1 ml of 0.25% collagenase solution (manufactured by Wako Pure Chemical Industries, Ltd.) was added to a L929 cell-embedded collagen gel was referred to as liquid E. A liquid in which a gel was dissolved by shaking the gel at 37° C. for around 1 hour was referred to as liquid F. Each sample was centrifuged at 1000 rpm for 3 minutes, and the supernatant was removed by suction. Triton X-100 (manufactured by Sigma) was added to the above-described PBS to prepare 0.1% Triton X-100-containing PBS, and the sample was suspended in 1 ml of the 0.1% Triton X-100-containing PBS. The obtained suspension was frozen at −80° C., and then thawed at room temperature. This operation was repeated 3 times. 180 μl of Hoechst (Hoechst (registered trademark), manufactured by Thermo Fisher Scientific K.K.) was mixed with 20 μl of sample, and the obtained mixture was added in a 96-well black plate. By using Fluorescent DNA Quantitation Kit Cat. #170-2480 (BIO-RAD), the quantification of DNA was performed with fluorescent brightness measurement under the conditions of an excitation filter of 355 nm and an absorption filter of 460 nm. The fluorescent brightness was measured 3 times, and the average was taken to obtain the amount of DNA. The quantification of DNA was performed before the start of the test (0 day), and 1 day, 3 days, 5 days, and 7 days after the start of the test.

“Comparative Example 3: bFGF (basic fibroblast growth factor) used as it was”: the “Amount of DNA” value reads like this: (0 Day (before the start of the test)) 43 ng; (After 1 day, 200 μl sample) 74 ng; (After 3 days, 200 μl sample) 145 ng; (After 5 days, 200 μl sample) 187 ng; (After 7 days, 200 μl sample) 192 ng.
